Values joined by “and” are separate entries in the source; they are usually repeats but may differ in a detail not shown here. Equal values may be shown once. Inconclusive results and toxic doses are left out.
System: P388 leukemia ip, CD2F1 mice, survival T/C
Experiment: NCI In Vivo Anticancer Drug Screen. Data for tumor model P388 Leukemia (intraperitoneal) in CD2F1 (CDF1) mice
Conditions: endpoint: median survival time, higher = longer survival
Summary of the method: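 Mice carrying the transplanted tumor received test compound or vehicle. Survival was recorded in each group, and the value is the treated-group measurement divided by that of the vehicle-treated control group.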

## Clc1nc(-c2ccccc2)nc(-c2ccccc2)n1
dose: 100.0 mg/kg/injection, schedule: Q04DX002 (ip), vehicle: saline
  T/C: 104 % of control
dose: 200.0 mg/kg/injection, schedule: Q04DX002 (ip), vehicle: saline
  T/C: 100 % of control
dose: 400.0 mg/kg/injection, schedule: Q04DX002 (ip), vehicle: saline
  T/C: 109 % of control

## CN1NC(c2ccccc2)NN(C)C1=S
dose: 60.0 mg/kg/injection, schedule: Q01DX005 (ip), vehicle: Klucel (hydroxypropylcellulose) (HPC)
  T/C: 101 % of control
dose: 120.0 mg/kg/injection, schedule: Q01DX005 (ip), vehicle: Klucel (hydroxypropylcellulose) (HPC)
  T/C: 98 % of control
dose: 240.0 mg/kg/injection, schedule: Q01DX005 (ip), vehicle: Klucel (hydroxypropylcellulose) (HPC)
  T/C: 106 % of control

## CCN1C(=O)C(N2CCCCC2)S/C1=C\C(=O)O (centres undefined)
dose: 50.0 mg/kg/injection, schedule: Q01DX009 (ip), vehicle: Klucel (hydroxypropylcellulose) (HPC)
  T/C: 97 % of control
dose: 100.0 mg/kg/injection, schedule: Q01DX009 (ip), vehicle: Klucel (hydroxypropylcellulose) (HPC)
  T/C: 110 % of control
dose: 200.0 mg/kg/injection, schedule: Q01DX009 (ip), vehicle: Klucel (hydroxypropylcellulose) (HPC)
  T/C: 107 % of control

## CCOC(=O)C(C)(CCC(C)=O)C(=O)OCC
dose: 60.0 mg/kg/injection, schedule: Q01DX005 (ip), vehicle: saline
  T/C: 100 % of control
dose: 120.0 mg/kg/injection, schedule: Q01DX005 (ip), vehicle: saline
  T/C: 99 % of control
dose: 240.0 mg/kg/injection, schedule: Q01DX005 (ip), vehicle: saline
  T/C: 108 % of control

## CCOC(=O)c1csc(CCNC(=O)c2ccccc2)n1
dose: 12.5 mg/kg/injection, schedule: Q01DX009 (ip), vehicle: other
  T/C: 103 % of control
dose: 25.0 mg/kg/injection, schedule: Q01DX009 (ip), vehicle: other
  T/C: 102 % of control
dose: 50.0 mg/kg/injection, schedule: Q01DX009 (ip), vehicle: other
  T/C: 94 % of control
dose: 100.0 mg/kg/injection, schedule: Q01DX009 (ip), vehicle: other
  T/C: 94 % of control
dose: 200.0 mg/kg/injection, schedule: Q01DX009 (ip), vehicle: other
  T/C: 89 % of control

## CSc1ncc(C=O)n1Cc1ccccc1
dose: 17.5 mg/kg/injection, schedule: Q01DX005 (ip), vehicle: Klucel (hydroxypropylcellulose) (HPC)
  T/C: 115 % of control
dose: 35.0 mg/kg/injection, schedule: Q01DX005 (ip), vehicle: Klucel (hydroxypropylcellulose) (HPC)
  T/C: 98 % of control
dose: 70.0 mg/kg/injection, schedule: Q01DX005 (ip), vehicle: Klucel (hydroxypropylcellulose) (HPC)
  T/C: 101 % of control

## Cc1cc2nc3ccccc3[nH]c2c2ccc(=O)cc12
dose: 100.0 mg/kg/injection, schedule: Q04DX002 (ip), vehicle: saline with Tween-80
  T/C: 99 % of control
dose: 200.0 mg/kg/injection, schedule: Q04DX002 (ip), vehicle: saline with Tween-80
  T/C: 98 % of control
dose: 400.0 mg/kg/injection, schedule: Q04DX002 (ip), vehicle: saline with Tween-80
  T/C: 94 % of control

## O=C1NC(=O)C2C1C1C3OC3C2C2C3C(=O)NC(=O)C3C12 (centres undefined)
dose: 6.25 mg/kg/injection, schedule: Q01DX009 (ip), vehicle: saline with Tween-80
  T/C: 102 % of control
dose: 12.5 mg/kg/injection, schedule: Q01DX009 (ip), vehicle: saline with Tween-80
  T/C: 116 % of control
dose: 25.0 mg/kg/injection, schedule: Q01DX009 (ip), vehicle: saline with Tween-80
  T/C: 110 % of control
dose: 100.0 mg/kg/injection, schedule: Q01DX009 (ip), vehicle: saline with Tween-80
  T/C: 168 % of control

## C[n+]1ccc(C#N)c(C#N)c1
dose: 3.75 mg/kg/injection, schedule: Q01DX005 (ip), vehicle: Klucel (hydroxypropylcellulose) (HPC)
  T/C: 102 % of control
dose: 7.5 mg/kg/injection, schedule: Q01DX005 (ip), vehicle: Klucel (hydroxypropylcellulose) (HPC)
  T/C: 116 % of control
dose: 15.0 mg/kg/injection, schedule: Q01DX005 (ip), vehicle: Klucel (hydroxypropylcellulose) (HPC)
  T/C: 103 % of control
dose: 30.0 mg/kg/injection, schedule: Q01DX005 (ip), vehicle: Klucel (hydroxypropylcellulose) (HPC)
  T/C: 108 % of control and 110 % of control

## CCCCCC(CN(C)C)C(=O)CC(SCC)c1ccc(Cl)c(Cl)c1 (centres undefined)
dose: 6.25 mg/kg/injection, schedule: Q01DX009 (ip), vehicle: water
  T/C: 102 % of control and 113 % of control
dose: 12.5 mg/kg/injection, schedule: Q01DX009 (ip), vehicle: water
  T/C: 107 % of control and 109 % of control and 111 % of control
dose: 25.0 mg/kg/injection, schedule: Q01DX009 (ip), vehicle: water
  T/C: 107 % of control and 120 % of control and 95 % of control
dose: 50.0 mg/kg/injection, schedule: Q01DX009 (ip), vehicle: water
  T/C: 101 % of control and 112 % of control and 115 % of control
dose: 100.0 mg/kg/injection, schedule: Q01DX009 (ip), vehicle: water
  T/C: 108 % of control

## CCCCCCCC#CC1(CCCC)Sc2ccccc2N1C (centres undefined)
dose: 60.0 mg/kg/injection, schedule: Q01DX005 (ip), vehicle: saline with Tween-80
  T/C: 105 % of control
dose: 120.0 mg/kg/injection, schedule: Q01DX005 (ip), vehicle: saline with Tween-80
  T/C: 110 % of control
dose: 240.0 mg/kg/injection, schedule: Q01DX005 (ip), vehicle: saline with Tween-80
  T/C: 113 % of control

— PubChem BioAssay AID330 (DTP/NCI, 2004)
